The source of these data is ChEMBL document CHEMBL5465560, “Selectivity Literature for EUbOPEN Chemogenomic Library” (2024).

Some results are limits rather than exact numbers.

The target in test [1] is T1, Phosphatidylinositol 5-phosphate 4-kinase type-2 beta (Homo sapiens) (UniProt P78356).
T1 sequence (whole entry): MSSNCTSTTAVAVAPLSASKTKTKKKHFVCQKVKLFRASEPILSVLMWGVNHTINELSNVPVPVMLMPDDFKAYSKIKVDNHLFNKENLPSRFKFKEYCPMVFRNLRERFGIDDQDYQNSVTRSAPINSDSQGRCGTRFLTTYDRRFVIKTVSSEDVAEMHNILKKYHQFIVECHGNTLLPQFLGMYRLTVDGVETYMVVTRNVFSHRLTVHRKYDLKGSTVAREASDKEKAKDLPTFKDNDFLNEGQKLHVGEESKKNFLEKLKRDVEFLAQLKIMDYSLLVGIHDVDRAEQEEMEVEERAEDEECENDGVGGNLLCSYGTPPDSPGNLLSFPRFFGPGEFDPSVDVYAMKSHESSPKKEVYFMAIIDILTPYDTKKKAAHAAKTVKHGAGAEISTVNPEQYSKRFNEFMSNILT
The test can be described thus: Selectivity interaction (ActivX KiNativ screen (ex vivo kinase selectivity in human PBMCs)) EUB0001619a PIP4K2B. Type of test: cell-based. The note with it: PBMC, at 1 µM.

The target in test [2] is T2, Serine/threonine-protein kinase D1 (Homo sapiens) (UniProt Q15139).
T2 sequence (whole entry): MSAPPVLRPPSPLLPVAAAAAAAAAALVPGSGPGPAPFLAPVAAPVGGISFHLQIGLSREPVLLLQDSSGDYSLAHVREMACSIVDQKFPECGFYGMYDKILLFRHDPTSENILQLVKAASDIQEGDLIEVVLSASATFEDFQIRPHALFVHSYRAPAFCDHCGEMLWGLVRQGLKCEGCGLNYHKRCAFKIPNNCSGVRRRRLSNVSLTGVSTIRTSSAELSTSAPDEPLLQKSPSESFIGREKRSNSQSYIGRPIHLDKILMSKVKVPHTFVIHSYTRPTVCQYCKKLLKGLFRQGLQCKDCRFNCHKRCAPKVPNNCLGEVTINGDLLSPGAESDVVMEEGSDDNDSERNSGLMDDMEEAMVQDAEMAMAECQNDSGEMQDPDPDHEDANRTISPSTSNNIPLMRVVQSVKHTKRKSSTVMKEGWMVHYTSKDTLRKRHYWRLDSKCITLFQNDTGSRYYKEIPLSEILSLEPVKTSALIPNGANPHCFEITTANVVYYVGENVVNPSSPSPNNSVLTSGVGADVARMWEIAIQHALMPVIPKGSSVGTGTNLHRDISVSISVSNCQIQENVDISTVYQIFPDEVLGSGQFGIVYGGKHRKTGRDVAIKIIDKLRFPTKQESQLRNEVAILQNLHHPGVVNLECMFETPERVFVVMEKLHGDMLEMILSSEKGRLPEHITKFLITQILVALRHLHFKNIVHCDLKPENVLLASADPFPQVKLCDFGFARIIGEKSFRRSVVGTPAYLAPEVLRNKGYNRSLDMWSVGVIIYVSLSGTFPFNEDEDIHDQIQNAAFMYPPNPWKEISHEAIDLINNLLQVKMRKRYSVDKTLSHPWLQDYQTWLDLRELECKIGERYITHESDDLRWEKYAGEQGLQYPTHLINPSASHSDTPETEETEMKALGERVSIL
The test is described as follows: Selectivity interaction (KinomeScan (DiscoverX)) EUB0000695a PRKD1. The note with it: at 100 nM.

Test [3] deals with Tyrosine-protein kinase Fer (Homo sapiens) (UniProt P16591). The test is described as follows: Selectivity interaction (ActivX KiNativ screen (kinase selectivity in THP-1 cell lysates)) EUB0000639a FER. Type of test: subcellular. The conditions noted are these: lysate, at 5 µM.
Test [4] addresses 5'-AMP-activated protein kinase catalytic subunit alpha-1 (Homo sapiens, UniProt Q13131). The test can be described thus: Selectivity interaction (ActivX KiNativ screen (kinase selectivity in THP-1 cell lysates)) EUB0000639a PRKAA1. It is filed as subcellular. The conditions noted are these: lysate, at 0.2 µM.
The target in test [5] is Tyrosine-protein kinase Fes/Fps (Homo sapiens) (UniProt P07332). The test can be described thus: Selectivity interaction (Kinase panel (DSF assay)) EUB0001559a FES. In general terms: Differential scanning fluorimetry follows unfolding on heating by fluorescence.
Test [6] addresses Fibroblast growth factor receptor 2 (Homo sapiens) (UniProt P21802). The test is described as follows: Selectivity interaction (KinomeScan (DiscoverX)) EUB0000045b FGFR2.
Test [7] addresses Kappa-type opioid receptor (Homo sapiens, UniProt P41145). The test is described as follows: Selectivity interaction (Opiate Kappa receptor assay, human recombinant ) EUB0000877a OPRK1.
For test [8], the target named is T3, Dual specificity mitogen-activated protein kinase kinase 4 (Homo sapiens) (UniProt P45985).
T3 sequence (whole entry): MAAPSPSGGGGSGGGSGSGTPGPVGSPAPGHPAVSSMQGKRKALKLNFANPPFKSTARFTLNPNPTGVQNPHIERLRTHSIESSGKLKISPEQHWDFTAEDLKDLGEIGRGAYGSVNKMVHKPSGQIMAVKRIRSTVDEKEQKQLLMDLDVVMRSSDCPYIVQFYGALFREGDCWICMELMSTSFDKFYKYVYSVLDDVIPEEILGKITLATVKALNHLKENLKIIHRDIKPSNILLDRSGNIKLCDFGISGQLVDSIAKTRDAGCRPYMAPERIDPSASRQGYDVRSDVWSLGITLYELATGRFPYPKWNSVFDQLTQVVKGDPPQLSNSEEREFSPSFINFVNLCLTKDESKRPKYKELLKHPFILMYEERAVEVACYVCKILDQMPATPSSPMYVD
The test can be described thus: Selectivity interaction (KinomeScan (DiscoverX)) EUB0000618a MAP2K4. The note with it: at 10 µM.

Test [9] concerns the target Cyclin-dependent kinase 15 (Homo sapiens) (UniProt Q96Q40). The test is described as follows: Selectivity interaction (KinomeScan (DiscoverX)) EUB0000229b CDK15. The note with it: at 10 µM.
The target in test [10] is Serine/threonine-protein kinase pim-3 (Homo sapiens) (UniProt Q86V86). The test is described as follows: Selectivity interaction (KinomeScan (DiscoverX)) EUB0000229b PIM3. The conditions noted are these: at 10 µM.

The IC50 is the midpoint of a concentration-inhibition curve.

Chain of Fibroblast growth factor receptor 2 (Homo sapiens) (P21802 22-821 limits assumed): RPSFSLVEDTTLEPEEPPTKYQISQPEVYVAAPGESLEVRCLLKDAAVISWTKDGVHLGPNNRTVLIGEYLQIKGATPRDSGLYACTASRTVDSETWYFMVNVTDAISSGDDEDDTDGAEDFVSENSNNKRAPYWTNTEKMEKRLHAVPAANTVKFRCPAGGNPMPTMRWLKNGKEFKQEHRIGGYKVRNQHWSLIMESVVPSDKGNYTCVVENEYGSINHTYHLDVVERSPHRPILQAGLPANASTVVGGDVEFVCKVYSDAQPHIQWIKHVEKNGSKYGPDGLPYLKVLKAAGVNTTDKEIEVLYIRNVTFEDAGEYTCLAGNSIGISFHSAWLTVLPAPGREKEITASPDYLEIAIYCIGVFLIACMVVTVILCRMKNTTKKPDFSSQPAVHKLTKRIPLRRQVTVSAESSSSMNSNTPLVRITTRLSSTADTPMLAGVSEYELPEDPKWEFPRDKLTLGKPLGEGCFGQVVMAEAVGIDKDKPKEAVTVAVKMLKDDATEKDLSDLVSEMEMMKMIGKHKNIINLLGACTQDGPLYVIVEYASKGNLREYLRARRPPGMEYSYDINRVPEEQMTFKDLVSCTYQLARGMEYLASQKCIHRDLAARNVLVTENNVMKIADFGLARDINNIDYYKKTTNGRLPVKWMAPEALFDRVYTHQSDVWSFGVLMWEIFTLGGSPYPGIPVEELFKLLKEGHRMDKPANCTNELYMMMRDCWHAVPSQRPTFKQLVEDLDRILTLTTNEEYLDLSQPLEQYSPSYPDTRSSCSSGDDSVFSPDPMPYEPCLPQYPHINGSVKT
Chain of Cyclin-dependent kinase 15 (Homo sapiens) (Q96Q40 whole entry): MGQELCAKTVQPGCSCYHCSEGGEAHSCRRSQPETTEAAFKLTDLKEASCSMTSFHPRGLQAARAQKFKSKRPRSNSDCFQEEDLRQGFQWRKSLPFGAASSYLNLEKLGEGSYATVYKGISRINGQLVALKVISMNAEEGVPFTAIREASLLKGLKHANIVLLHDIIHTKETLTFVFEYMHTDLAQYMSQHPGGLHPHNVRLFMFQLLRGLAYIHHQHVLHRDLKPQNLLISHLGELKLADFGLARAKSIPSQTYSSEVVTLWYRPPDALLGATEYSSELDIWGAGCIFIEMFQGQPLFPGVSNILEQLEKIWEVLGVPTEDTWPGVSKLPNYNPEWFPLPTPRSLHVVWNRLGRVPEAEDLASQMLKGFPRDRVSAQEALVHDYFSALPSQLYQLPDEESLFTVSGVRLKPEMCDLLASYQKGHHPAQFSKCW
Chain of Tyrosine-protein kinase Fes/Fps (Homo sapiens) (P07332 whole entry): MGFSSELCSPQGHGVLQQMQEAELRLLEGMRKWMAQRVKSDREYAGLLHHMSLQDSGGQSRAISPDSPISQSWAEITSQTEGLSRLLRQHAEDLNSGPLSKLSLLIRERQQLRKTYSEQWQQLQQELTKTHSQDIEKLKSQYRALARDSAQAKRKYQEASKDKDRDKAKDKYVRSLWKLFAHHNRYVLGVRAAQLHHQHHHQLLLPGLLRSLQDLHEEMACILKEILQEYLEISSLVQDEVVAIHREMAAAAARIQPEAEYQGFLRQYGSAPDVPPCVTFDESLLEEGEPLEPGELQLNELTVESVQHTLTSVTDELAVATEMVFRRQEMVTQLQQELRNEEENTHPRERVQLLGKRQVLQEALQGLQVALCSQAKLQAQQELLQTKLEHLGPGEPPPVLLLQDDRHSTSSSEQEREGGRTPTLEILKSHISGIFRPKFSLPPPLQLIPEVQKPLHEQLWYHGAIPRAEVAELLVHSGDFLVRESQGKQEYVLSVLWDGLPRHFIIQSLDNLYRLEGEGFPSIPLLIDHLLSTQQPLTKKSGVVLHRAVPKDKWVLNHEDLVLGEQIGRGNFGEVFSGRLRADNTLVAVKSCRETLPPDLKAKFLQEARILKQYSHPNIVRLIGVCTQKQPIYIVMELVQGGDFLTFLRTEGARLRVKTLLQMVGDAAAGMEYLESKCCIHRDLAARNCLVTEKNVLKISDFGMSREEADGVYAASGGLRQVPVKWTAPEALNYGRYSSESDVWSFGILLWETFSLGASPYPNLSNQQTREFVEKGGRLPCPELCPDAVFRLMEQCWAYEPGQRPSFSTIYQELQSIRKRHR
Chain of Kappa-type opioid receptor (P41145 whole entry): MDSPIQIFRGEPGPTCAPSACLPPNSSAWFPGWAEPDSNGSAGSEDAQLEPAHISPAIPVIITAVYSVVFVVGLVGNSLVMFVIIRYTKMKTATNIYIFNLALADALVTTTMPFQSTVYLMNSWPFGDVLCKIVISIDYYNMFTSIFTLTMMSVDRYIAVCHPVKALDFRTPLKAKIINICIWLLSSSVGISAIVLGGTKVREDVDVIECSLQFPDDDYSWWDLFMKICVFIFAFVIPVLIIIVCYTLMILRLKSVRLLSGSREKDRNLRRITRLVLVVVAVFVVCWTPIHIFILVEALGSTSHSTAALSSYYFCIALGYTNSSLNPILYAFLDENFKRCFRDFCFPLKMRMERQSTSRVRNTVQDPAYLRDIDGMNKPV
Chain of 5'-AMP-activated protein kinase catalytic subunit alpha-1 (Q13131 whole entry, looked up): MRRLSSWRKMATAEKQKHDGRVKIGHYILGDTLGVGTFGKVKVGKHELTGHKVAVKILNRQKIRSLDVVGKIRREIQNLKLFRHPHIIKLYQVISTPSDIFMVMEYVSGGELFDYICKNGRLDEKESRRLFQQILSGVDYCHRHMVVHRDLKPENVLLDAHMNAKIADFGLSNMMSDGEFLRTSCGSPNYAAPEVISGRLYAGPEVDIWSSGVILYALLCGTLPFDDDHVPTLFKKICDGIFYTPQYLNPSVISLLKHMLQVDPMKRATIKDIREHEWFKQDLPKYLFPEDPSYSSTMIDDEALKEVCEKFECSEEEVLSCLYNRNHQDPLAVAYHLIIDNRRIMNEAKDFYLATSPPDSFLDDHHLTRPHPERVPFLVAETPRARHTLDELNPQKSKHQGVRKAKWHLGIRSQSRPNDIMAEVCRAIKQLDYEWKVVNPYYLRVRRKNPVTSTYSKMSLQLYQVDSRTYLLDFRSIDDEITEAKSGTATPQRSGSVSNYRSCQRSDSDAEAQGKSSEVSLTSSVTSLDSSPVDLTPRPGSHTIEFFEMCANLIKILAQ
Chain of Tyrosine-protein kinase Fer (Homo sapiens) (P16591 whole entry, looked up): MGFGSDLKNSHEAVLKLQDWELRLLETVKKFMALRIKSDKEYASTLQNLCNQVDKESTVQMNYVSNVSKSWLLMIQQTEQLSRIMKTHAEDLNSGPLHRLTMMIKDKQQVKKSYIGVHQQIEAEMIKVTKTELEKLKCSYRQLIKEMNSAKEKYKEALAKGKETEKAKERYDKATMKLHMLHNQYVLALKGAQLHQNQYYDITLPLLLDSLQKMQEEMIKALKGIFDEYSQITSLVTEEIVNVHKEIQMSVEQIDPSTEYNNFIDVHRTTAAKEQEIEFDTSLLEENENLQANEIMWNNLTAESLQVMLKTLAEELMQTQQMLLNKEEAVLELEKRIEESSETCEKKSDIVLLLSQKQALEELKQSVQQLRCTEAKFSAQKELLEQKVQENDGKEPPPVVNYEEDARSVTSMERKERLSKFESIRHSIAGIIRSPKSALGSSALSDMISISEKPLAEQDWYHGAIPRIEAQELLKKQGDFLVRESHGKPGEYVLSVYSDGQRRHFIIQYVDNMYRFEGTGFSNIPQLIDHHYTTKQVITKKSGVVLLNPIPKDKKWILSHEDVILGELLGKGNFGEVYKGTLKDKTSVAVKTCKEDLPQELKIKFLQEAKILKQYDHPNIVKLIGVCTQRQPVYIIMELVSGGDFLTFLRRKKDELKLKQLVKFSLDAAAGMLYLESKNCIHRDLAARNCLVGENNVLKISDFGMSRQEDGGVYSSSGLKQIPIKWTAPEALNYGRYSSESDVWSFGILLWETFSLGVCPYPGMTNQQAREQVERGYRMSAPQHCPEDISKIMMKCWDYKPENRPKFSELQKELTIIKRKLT

In the case of `N#Cc1cccc(-c2c[nH]c3ncnc(N4CCOCC4)c23)c1`, in [1], the % of inhibition turned out to be 15%. In test [2], `Cc1cc(F)c(C(=O)Nc2cccc(-c3nncn3C(C)C)n2)cc1-n1cnc(C2CC2)c1` came in with a % of control of 8.7%. As to `CC[C@@H]1[C@H](F)C(=O)N[C@@H]1COc1nccc2cc(C(N)=O)c(OC)cc12` [ZIMLOVISERTIB], the figures for the % of inhibition in test [3] and in test [4] were -6.1% and -4.3%, respectively.

Take `CN(C(=O)c1cnn2cccnc12)c1cc2c(cc1N1CCOCC1)C(=O)N(C[C@@H](F)C(C)(C)O)C2`: the dTM in test [5] is -0.6 K. Regarding `C=CC(=O)Nc1cc(-n2c(=O)ccc3cnc4ccc(-c5ccc(NS(C)(=O)=O)cc5)cc4c32)ccc1C`, the figures for the % of control in [6] (at 1 µM) and in [6] (at 10 µM) were 96% and 92%, respectively.

As to `CCC(=O)N1CC[C@H](Nc2ncnc3c2CN(c2cnc(OC)c(C(F)(F)F)c2)CC3)C1` [LENIOLISIB], the IC50 in test [7] is > 30 µM. With `O[C@H]1CC[C@H](Nc2ncc3nc(Nc4c(F)cc(F)cc4F)n([C@H]4CCOC4)c3n2)CC1`, in test [8], the % of control came to 27%.

As for `COc1cc(N(C)c2ccnc3ccc(C(F)(F)F)cc23)cc(OC)c1OC`, the results for the % binding in test [9] and in test [10] were 85% and 78%, respectively.
